In patent US20200138854A1, “Method of Detecting and Quantifying Bile Acid from Saliva” (Ironwood Pharmaceuticals, Inc., priority 2017, published 2020):
Several values for one entry are separate records, joined by “and”; a condition that tells them apart may be missing. Identical values can stand only once. Like-named read-outs stand apart in the source and are kept apart here.

Key:
[1] = 1 month
[2] = Frozen (−20° C.) short-term stability in cholestyramine-treated human saliva; conditions: for Concentration QC-LLOQ / Concentration QC-Mid / Concentration QC-High: run 33; for % Bias / Concentration, Mean / Concentration: −20° C.; for Concentration: individual values
Protocol: Quality control samples for the evaluation of accuracy and precision and for run acceptance were prepared on the day of sample extraction. QC samples prepared in cholestyramine-treated saliva are to be prepared in small volumes for analysis. Stability for these QC samples would be limited to short-term storage (i.e., 2 days) whereas untreated human saliva would be evaluated for long-term storage.
For stability in cholestyramine-treated human saliva, samples were prepared by spiking cholestyramine-treated human saliva with each analyte at the QC-LLOQ, QC-Low, QC-Mid and QC-High levels. The samples were stored in a −20° C. freezer. After 1 day and 2 days of storage, each sample was extracted in replicates of four for analysis.

[3] = Long-term (1 month at −20° C. and −80° C.) stability in untreated human saliva; conditions: for % Bias QC-High / % CV QC-High / Difference from Fresh (%) QC-High / Mean concentration QC-High / Concentration QC-High / Fresh QCs (Batch 34) Mean at Time Zero, QC-High: untreated human saliva, nominal 80.0 ng/mL; for Concentration QC-High: run 35
[4] = 1 Day at −20° C., nominal 0.500 ng/mL
[5] = 1 Day at −20° C., nominal 8.00 ng/mL
[6] = 1 Day at −20° C., nominal 80.0 ng/mL
[7] = 2 Days at −20° C., nominal 0.500 ng/mL
[8] = 2 Days at −20° C., nominal 8.00 ng/mL
[9] = 2 Days at −20° C., nominal 80.0 ng/mL
[10] = 1 Day, QC-High, nominal 80.0 ng/mL
[11] = 1 Day, QC-LLOQ, nominal 0.500 ng/mL
[12] = 1 Day, QC-Mid, nominal 8.00 ng/mL
[13] = 2 Days, QC-High, nominal 80.0 ng/mL
[14] = 2 Days, QC-LLOQ, nominal 0.500 ng/mL
[15] = 2 Days, QC-Mid, nominal 8.00 ng/mL

CC(CCC(=O)NCC(=O)O)C1CCC2C3C(O)CC4CC(O)CCC4(C)C3CCC12C (centres unmarked) [Glycochenodeoxycholic Acid, Glycochenodeoxycholic acid]
Long-term stability in untreated human saliva [1]: up to 1 month | Stability in Untreated Human Saliva [1]: 1 Month | % Bias QC-LLOQ [2, 4]: 9.1% | % CV QC-LLOQ [2, 4]: 4.7% | Mean concentration QC-LLOQ [2, 4]: 0.546 ng/mL | Concentration QC-LLOQ [2, 4]: 0.538 ng/mL and 0.551 ng/mL and 0.516 ng/mL and 0.578 ng/mL | % Bias QC-Mid [2, 5]: −2.4% | % CV QC-Mid [2, 5]: 2.4% | Mean concentration QC-Mid [2, 5]: 7.81 ng/mL | Concentration QC-Mid [2, 5]: 7.56 ng/mL and 7.99 ng/mL and 7.92 ng/mL and 7.76 ng/mL | % Bias QC-High [2, 6]: −1.3% | % CV QC-High [2, 6]: 2.2% | Mean concentration QC-High [2, 6]: 78.9 ng/mL | Concentration QC-High [2, 6]: 79.3 ng/mL and 80.9 ng/mL and 76.6 ng/mL and 78.9 ng/mL | % Bias QC-LLOQ [2, 7]: 16.5% | % CV QC-LLOQ [2, 7]: 4.1% | Mean concentration QC-LLOQ [2, 7]: 0.583 ng/mL | Concentration QC-LLOQ [2, 7]: 0.596 ng/mL and 0.597 ng/mL and 0.555 ng/mL and 0.674^a ng/mL | % Bias QC-Mid [2, 8]: 2.1% | % CV QC-Mid [2, 8]: 3.8% | Mean concentration QC-Mid [2, 8]: 8.17 ng/mL | Concentration QC-Mid [2, 8]: 7.71 ng/mL and 8.40 ng/mL and 8.22 ng/mL and 8.33 ng/mL | % Bias QC-High [2, 9]: 0.9% | % CV QC-High [2, 9]: 2.9% | Mean concentration QC-High [2, 9]: 80.8 ng/mL | Concentration QC-High [2, 9]: 78.3 ng/mL and 80.4 ng/mL and 80.3 ng/mL and 84.0 ng/mL | Short-term stability in cholestyramine-treated human saliva ([2]; human): up to 2 days | Stability in Treated Human Saliva ([2]; human): 2 days | % Bias QC-High ([3]; 1 month −20° C. storage): −4.9% | % CV QC-High ([3]; 1 month −20° C. storage): 2.4% | Difference from Fresh (%) QC-High ([3]; 1 month −20° C. storage): −4.4% | Mean concentration QC-High ([3]; 1 month −20° C. storage): 76.1 ng/mL | Concentration QC-High ([3]; 1 month −20° C. storage): 74.0 ng/mL and 77.4 ng/mL and 76.9 ng/mL | % Bias QC-High ([3]; 1 month −80° C. storage): −3.6% | % CV QC-High ([3]; 1 month −80° C. storage): 5.0% | Difference from Fresh (%) QC-High ([3]; 1 month −80° C. storage): −3.1% | Mean concentration QC-High ([3]; 1 month −80° C. storage): 77.1 ng/mL | Concentration QC-High ([3]; 1 month −80° C. storage): 80.6 ng/mL and 77.8 ng/mL and 73.0 ng/mL | Fresh QCs (Batch 34) Mean at Time Zero, QC-High ([3]; reference for −20° C. storage): 79.6 ng/mL | Fresh QCs (Batch 34) Mean at Time Zero, QC-High ([3]; reference for −80° C. storage): 79.6 ng/mL

C[C@H](CCC(=O)NCCS(=O)(=O)O)[C@H]1CC[C@H]2[C@@H]3[C@H](O)C[C@@H]4C[C@H](O)CC[C@]4(C)[C@H]3C[C@H](O)[C@]12C [Taurocholic Acid, Taurocholic acid]
% Bias QC-LLOQ [2, 4]: −1.1% | % CV QC-LLOQ [2, 4]: 2.4% | Mean concentration QC-LLOQ [2, 4]: 0.495 ng/mL | Concentration QC-LLOQ [2, 4]: 0.481 ng/mL and 0.509 ng/mL and 0.491 ng/mL and 0.498 ng/mL | % Bias QC-Mid [2, 5]: −8.4% | % CV QC-Mid [2, 5]: 1.9% | Mean concentration QC-Mid [2, 5]: 7.33 ng/mL | Concentration QC-Mid [2, 5]: 7.32 ng/mL and 7.29 ng/mL and 7.51 ng/mL and 7.18 ng/mL | % Bias QC-High [2, 6]: −6.6% | % CV QC-High [2, 6]: 2.7% | Mean concentration QC-High [2, 6]: 74.7 ng/mL | Concentration QC-High [2, 6]: 74.9 ng/mL and 77.2 ng/mL and 72.3 ng/mL and 74.5 ng/mL | % Bias QC-LLOQ [2, 7]: 11.2% | % CV QC-LLOQ [2, 7]: 4.1% | Mean concentration QC-LLOQ [2, 7]: 0.556 ng/mL | Concentration QC-LLOQ [2, 7]: 0.538 ng/mL and 0.563 ng/mL and 0.537 ng/mL and 0.585 ng/mL | % Bias QC-Mid [2, 8]: −6.7% | % CV QC-Mid [2, 8]: 4.8% | Mean concentration QC-Mid [2, 8]: 7.46 ng/mL | Concentration QC-Mid [2, 8]: 6.98 ng/mL and 7.47 ng/mL and 7.55 ng/mL and 7.85 ng/mL | % Bias QC-High [2, 9]: −6.7% | % CV QC-High [2, 9]: 2.1% | Mean concentration QC-High [2, 9]: 74.7 ng/mL | Concentration QC-High [2, 9]: 73.1 ng/mL and 75.1 ng/mL and 73.8 ng/mL and 76.6 ng/mL | Short-term stability in cholestyramine-treated human saliva ([2]; at −20° C.): up to 2 days | Stability in Treated Human Saliva ([2]; at −20° C., cholestyramine-treated human saliva): 2 days | % Bias QC-High ([3]; 1 month −20° C. storage): −2.9% | % CV QC-High ([3]; 1 month −20° C. storage): 3.0% | Difference from Fresh (%) QC-High ([3]; 1 month −20° C. storage): −4.5% | Mean concentration QC-High ([3]; 1 month −20° C. storage): 77.7 ng/mL | Concentration QC-High ([3]; 1 month −20° C. storage): 75.1 ng/mL and 78.3 ng/mL and 79.7 ng/mL | % Bias QC-High ([3]; 1 month −80° C. storage): −2.3% | % CV QC-High ([3]; 1 month −80° C. storage): 3.7% | Difference from Fresh (%) QC-High ([3]; 1 month −80° C. storage): −4.0% | Mean concentration QC-High ([3]; 1 month −80° C. storage): 78.1 ng/mL | Concentration QC-High ([3]; 1 month −80° C. storage): 81.2 ng/mL and 77.8 ng/mL and 75.4 ng/mL | Fresh QCs (Batch 34) Mean at Time Zero, QC-High ([3]; reference for −20° C. storage): 81.4 ng/mL | Fresh QCs (Batch 34) Mean at Time Zero, QC-High ([3]; reference for −80° C. storage): 81.4 ng/mL

C[C@H](CCC(=O)NCCS(=O)(=O)O)[C@H]1CC[C@H]2[C@@H]3CC[C@@H]4C[C@H](O)CC[C@]4(C)[C@H]3C[C@H](O)[C@]12C [Taurodeoxycholic Acid, Taurodeoxycholic acid]
Short-term stability in cholestyramine-treated human saliva ([2]; human): up to 2 days | Stability in Treated Human Saliva ([2]; human): 2 days | % Bias [2, 10]: −1.3% | Concentration, Mean [2, 10]: 79.0 ng/mL | Concentration [2, 10]: 78.6 ng/mL and 82.0 ng/mL and 76.9 ng/mL and 78.5 ng/mL | % Bias [2, 11]: 10.3% | Concentration, Mean [2, 11]: 0.551 ng/mL | Concentration [2, 11]: 0.539 ng/mL and 0.570 ng/mL and 0.536 ng/mL and 0.560 ng/mL | % Bias [2, 12]: −2.5% | Concentration, Mean [2, 12]: 7.80 ng/mL | Concentration [2, 12]: 7.71 ng/mL and 7.90 ng/mL and 7.81 ng/mL and 7.77 ng/mL | % Bias [2, 13]: −4.4% | Concentration, Mean [2, 13]: 76.5 ng/mL | Concentration [2, 13]: 73.7 ng/mL and 76.5 ng/mL and 76.2 ng/mL and 79.5 ng/mL | % Bias [2, 14]: 17.2% | Concentration, Mean [2, 14]: 0.586 ng/mL | Concentration [2, 14]: 0.596 ng/mL and 0.592 ng/mL and 0.555 ng/mL and 0.601 ng/mL | % Bias [2, 15]: −2.9% | Concentration, Mean [2, 15]: 7.77 ng/mL | Concentration [2, 15]: 7.19 ng/mL and 8.02 ng/mL and 8.13 ng/mL and 7.72 ng/mL | % Bias QC-High ([3]; 1 month −20° C. storage): −4.7% | % CV QC-High ([3]; 1 month −20° C. storage): 3.5% | Difference from Fresh (%) QC-High ([3]; 1 month −20° C. storage): −5.5% | Mean concentration QC-High ([3]; 1 month −20° C. storage): 76.2 ng/mL | Concentration QC-High ([3]; 1 month −20° C. storage): 73.7 ng/mL and 79.0 ng/mL and 76.0 ng/mL | % Bias QC-High ([3]; 1 month −80° C. storage): −2.7% | % CV QC-High ([3]; 1 month −80° C. storage): 4.4% | Difference from Fresh (%) QC-High ([3]; 1 month −80° C. storage): −3.6% | Mean concentration QC-High ([3]; 1 month −80° C. storage): 77.8 ng/mL | Concentration QC-High ([3]; 1 month −80° C. storage): 80.2 ng/mL and 79.4 ng/mL and 73.9 ng/mL | Long-term stability in untreated human saliva ([3]; at 80° C. (sic)): up to 1 month | Stability in Untreated Human Saliva ([3]; at −20° C.): 1 Month | Stability in Untreated Human Saliva ([3]; at −80° C.): 1 Month | Fresh QCs (Batch 34) Mean at Time Zero, QC-High ([3]; reference for −20° C. storage): 80.7 ng/mL | Fresh QCs (Batch 34) Mean at Time Zero, QC-High ([3]; reference for −80° C. storage): 80.7 ng/mL
